Each structure is given as a SMILES string. Some results are limits rather than exact numbers.

For one test, the system named is HT-29. The test can be described thus: Growth inhibition of human HT-29 cells measured after 72 hrs by Celltiter-Glo reagent based assay. Format: functional. The note with it: HT-29, 72 h.
Take `CC1=C(C(C)C(=O)NCCN2CCCCC2)c2cc(F)ccc2/C1=C\c1ccc([S+](C)[O-])cc1` (configuration not stated): the midpoint of cytotoxicity, the CC50, lay at 9.67 µM.
Same read-out and setting: the value for `CC1=C(C(C)C(=O)NCCN(C)C)c2cc(F)ccc2/C1=C\c1ccc([S+](C)[O-])cc1` (configuration not stated) was 12.7 µM.
The same measure, in the same setting: the value for `CC1=C(C(C)C(=O)NCCN2CCCC2)c2cc(F)ccc2/C1=C\c1ccc([S+](C)[O-])cc1` (configuration not stated) was 13.7 µM; that for `CCN(CC)CCCNC(=O)C(C)C1=C(C)/C(=C/c2ccc([S+](C)[O-])cc2)c2ccc(F)cc21` (configuration not stated) was 15.5 µM.
Compound `CCNCCCN(CC)C(=O)C(C)C1=C(C)/C(=C/c2ccc([S+](C)[O-])cc2)c2ccc(F)cc21` (configuration not stated) registered a CC50 of 6.98 µM.
The same measure, in the same setting: the value for `CNCCN(C)C(=O)C(C)C1=C(C)/C(=C/c2ccc([S+](C)[O-])cc2)c2ccc(F)cc21` (configuration not stated) was 10.7 µM; that for `CNCCCN(C)C(=O)C(C)C1=C(C)/C(=C/c2ccc([S+](C)[O-])cc2)c2ccc(F)cc21` (configuration not stated) was 10.5 µM.
Still for that read-out and setting: the value for `COc1cc(/C=C2/C(C)=C(C(C)C(=O)N3CCN(CCCN(C)C)CC3)c3cc(F)ccc32)cc(OC)c1OC` (configuration not stated) was 3.69 µM; that for `CC1=C(C(C)C(=O)N2CCN(CCN(C)C)CC2)c2cc(F)ccc2/C1=C\c1ccc([S+](C)[O-])cc1` (configuration not stated) was 38.4 µM.

The subject of the next test is MDA-MB-231. The test can be described thus: Growth inhibition of human MDA-MB-231 cells measured after 96 hrs by Celltiter-Glo reagent based assay. Format: functional. The conditions noted are these: MDA-MB-231, 96 h.
`CC1=C(C(C)C(=O)NCCN2CCCCC2)c2cc(F)ccc2/C1=C\c1ccc([S+](C)[O-])cc1` (configuration not stated) displayed a CC50 of 39.3 µM.
Same read-out and setting: the value for `CC1=C(C(C)C(=O)NCCN(C)C)c2cc(F)ccc2/C1=C\c1ccc([S+](C)[O-])cc1` (configuration not stated) was more than 50 µM; that for `CC1=C(C(C)C(=O)NCCN2CCCC2)c2cc(F)ccc2/C1=C\c1ccc([S+](C)[O-])cc1` (configuration not stated) was 39.2 µM; that for `CCN(CC)CCCNC(=O)C(C)C1=C(C)/C(=C/c2ccc([S+](C)[O-])cc2)c2ccc(F)cc21` (configuration not stated) was more than 50 µM.
The same measure, in the same setting: to `CCNCCCN(CC)C(=O)C(C)C1=C(C)/C(=C/c2ccc([S+](C)[O-])cc2)c2ccc(F)cc21` (configuration not stated) belongs 25.6 µM; to `CNCCN(C)C(=O)C(C)C1=C(C)/C(=C/c2ccc([S+](C)[O-])cc2)c2ccc(F)cc21` (configuration not stated), more than 50 µM.
`CNCCCN(C)C(=O)C(C)C1=C(C)/C(=C/c2ccc([S+](C)[O-])cc2)c2ccc(F)cc21` (configuration not stated): it took 36.8 µM to reach half-maximal cytotoxicity (CC50).
Same read-out and setting: to `COc1cc(/C=C2/C(C)=C(C(C)C(=O)N3CCN(CCCN(C)C)CC3)c3cc(F)ccc32)cc(OC)c1OC` (configuration not stated) belongs 7.34 µM; to `CC1=C(C(C)C(=O)N2CCN(CCN(C)C)CC2)c2cc(F)ccc2/C1=C\c1ccc([S+](C)[O-])cc1` (configuration not stated), more than 50 µM.

The test system of another test is PC-3. Briefly: Growth inhibition of human PC3 cells measured after 72 hrs by Celltiter-Glo reagent based assay. It counts as functional. The conditions noted are these: PC-3, 72 h.
`CC1=C(C(C)C(=O)NCCN2CCCCC2)c2cc(F)ccc2/C1=C\c1ccc([S+](C)[O-])cc1` (configuration not stated) had a cytotoxic concentration (CC50) of 36.3 µM.
Still for that read-out and setting: to `CC1=C(C(C)C(=O)NCCN(C)C)c2cc(F)ccc2/C1=C\c1ccc([S+](C)[O-])cc1` (configuration not stated) belongs more than 50 µM; to `CC1=C(C(C)C(=O)NCCN2CCCC2)c2cc(F)ccc2/C1=C\c1ccc([S+](C)[O-])cc1` (configuration not stated), 31.9 µM.
`CCN(CC)CCCNC(=O)C(C)C1=C(C)/C(=C/c2ccc([S+](C)[O-])cc2)c2ccc(F)cc21` (configuration not stated) gave a CC50 of more than 50 µM.
Take `CCNCCCN(CC)C(=O)C(C)C1=C(C)/C(=C/c2ccc([S+](C)[O-])cc2)c2ccc(F)cc21` (configuration not stated): it took 24.8 µM to reach half-maximal cytotoxicity (CC50).
Same read-out and setting: the value for `CNCCN(C)C(=O)C(C)C1=C(C)/C(=C/c2ccc([S+](C)[O-])cc2)c2ccc(F)cc21` (configuration not stated) was 27.9 µM.
`CNCCCN(C)C(=O)C(C)C1=C(C)/C(=C/c2ccc([S+](C)[O-])cc2)c2ccc(F)cc21` (configuration not stated) displayed a CC50 of 33.7 µM.
For `COc1cc(/C=C2/C(C)=C(C(C)C(=O)N3CCN(CCCN(C)C)CC3)c3cc(F)ccc32)cc(OC)c1OC` (configuration not stated), the CC50 is 9.61 µM.
Still for that read-out and setting: to `CC1=C(C(C)C(=O)N2CCN(CCN(C)C)CC2)c2cc(F)ccc2/C1=C\c1ccc([S+](C)[O-])cc1` (configuration not stated) belongs 50 µM.

Source of the values: ChEMBL document CHEMBL4118188, “A small diversity library of α-methyl amide analogs of sulindac for probing anticancer structure-activity relationships” (Bioorg Med Chem Lett, 2018).
